# Experimental data published in article PMC7932521, “2-aminobenzimidazoles for leishmaniasis: From initial hit discovery to in vivo profiling” (PLoS Neglected Tropical Diseases, 2021).
# Read-outs that look alike come from different tables or passages of the source.
# Experiments:
# [1] = Mouse single-dose pharmacokinetics; format: in vivo; details: for free plasma concentration (corrected by PPB) versus in vitro IC50 (corrected for medium binding): after single oral dosing
# Protocol: Compounds were administered to groups (n = 6) of female BALB/c mice via single intravenous dosing (at 2 mg/kg) or single oral dosing (at 50 mg/kg) employing a solution/suspension vehicle comprising of 10% ethanol, 40% PEG400 and 0.4% Tween80 in saline buffer (pH adjusted to 9). Samples derived from plasma (at 0.083 for iv only, 0.25, 1, 2, 4, 8 and 24 h) were quantified by LC−MS/MS. Data analysis and calculation of pharmacokinetic parameters was performed using Phoenix WinNonlin version 7.0.
# Mouse 5-day tolerability = format: in vivo; details: healthy mice
# Protocol: Compounds were administered to groups (n = 3) of female BALB/c mice via oral gavage in a 5-day exploratory repeat-dose study at doses of 25, 50 and 100 mg/kg/day, employing a solution/suspension vehicle comprising 10% ethanol, 40% PEG400 and 0.4% Tween80 in saline buffer (pH adjusted to 9). Repeat-dose toxicity was evaluated based on mortality, clinical observations, body weight and macroscopic organ pathologies.
# [2] = system: L. infantum (MHOM/BR/2005/NLC) strain expressing luciferase; format: in vivo, Leishmania infantum; details: 25 mg/kg/day oral
# Protocol: Groups of female BALB/c mice (n = 5) were infected with 10^8 stationary phase promastigotes of L. infantum chagasi-LUC in a final volume of 100 μL by the intraperitoneal route. At day 14 post-infection, groups were orally treated for 5 days with either drug vehicle only (10% ethanol, 40% PEG400 and 0.4% Tween80 in saline buffer—pH adjusted to 9), miltefosine (40 mg/kg QD) or with compounds 29 and 39 (25 mg/kg QD). Light emission in the ventral abdominal cavity of infected animals was recorded by bioimaging (IVIS Spectrum, Caliper Life Sciences) on 14, 19- and 24-days post-infection. Before imaging, mice received 75 mg/kg VivoGlo™ Luciferin (Promega Corporation) (i.p.) and were anesthetized in a 2% isoflurane atmosphere (Cristália). Animals were then transferred to the imaging chamber and kept in a 2% isoflurane atmosphere. Emitted photons were collected using the high resolution (medium binning) mode. Total photon emission from a defined region of interest (ROI) corresponding to the whole abdominal area was registered. The same ROI was applied to all animals in any given group. Images were acquired 15 min after luciferin injection. Total photon emission from each mouse was quantified with Living Image software version 4.3.1 (Caliper Life Sciences), and results were expressed as the number of photons/s/ROI subtracted from the corresponding ROI in uninfected animals. The detected signal was presented as a pseudocolor image representing light intensity (red = most intense and blue = least intense) and superimposed on the gray scale reference image.
# [3] = system: L. donovani MHOM/ NP/2003/ BPK282/0-cl4; experiment: VL/CL panel, intracellular amastigotes; format: cell-based; details: Leishmania donovani; average; read-out: IC-50 L. donovani MHOM/ NP/2003/ BPK282/0-cl4
# Protocol: (§1) For the antileishmania in vitro assays, 3×10^4 PMM/well were seeded in 96-well plates. After 24h, 5×10^5 amastigotes/well were added and incubated for 2h at 37°C. Next, the compounds in 4-fold serial dilutions were added and the plates were further incubated for 5 days (37°C, 5% CO2). Parasite burdens were assessed using an inverted microscope after Giemsa staining. The results were expressed as percent reduction in parasite burdens compared to negative control wells (100% growth) and IC50 values were determined. Values represent the geometric mean of at least two independent experiments. Miltefosine was used as the positive control in all plates.
# [4] = system: L. donovani MHOM/ET/2007/LLM-1600; experiment: VL/CL panel, intracellular amastigotes; format: cell-based; details: Leishmania donovani; average; read-out: IC-50 L. donovani MHOM/ET/2007/LLM-1600
# Protocol: as §1
# [5] = system: L. donovani MHOM/NP/03/BPK275/0-cl18; experiment: VL/CL panel, intracellular amastigotes; format: cell-based; details: Leishmania donovani; average; read-out: IC-50 L. donovani MHOM/NP/03/BPK275/0-cl18
# Protocol: as §1
# [6] = system: L. guyanensis MHOM/PE/02/PER 054/0; experiment: VL/CL panel, intracellular amastigotes; format: cell-based; details: Leishmania guyanensis; average; read-out: IC-50 L. guyanensis MHOM/PE/02/PER 054/0
# Protocol: as §1
# [7] = system: L. infantum LEM3323-cl4 MIL; experiment: VL/CL panel, intracellular amastigotes; format: cell-based; details: Leishmania infantum, read-out: IC-50 L. infantum LEM3323-cl4 MIL
# Protocol: as §1
# [8] = system: L. infantum LEM3323-cl4 PMM; experiment: VL/CL panel, intracellular amastigotes; format: cell-based; details: Leishmania infantum, read-out: IC-50 L. infantum LEM3323-cl4 PMM
# Protocol: as §1
# [9] = system: L. infantum MHOM/BR/2007/WC (L3015); experiment: VL/CL panel, intracellular amastigotes; format: cell-based; details: Leishmania infantum; average; read-out: IC-50 L. infantum MHOM/BR/2007/WC (L3015)
# Protocol: as §1
# [10] = system: L. infantum MHOM/ES/2016/LLM-2346; experiment: VL/CL panel, intracellular amastigotes; format: cell-based; details: Leishmania infantum; average; read-out: IC-50 L. infantum MHOM/ES/2016/LLM-2346
# Protocol: as §1
# [11] = system: L. infantum MHOM/FR/96/LEM3323-cl4; experiment: VL/CL panel, intracellular amastigotes; format: cell-based; details: Leishmania infantum; average; read-out: IC-50 L. infantum MHOM/FR/96/LEM3323-cl4
# Protocol: as §1
# [12] = system: L. major MHOM/SA/85/JISH118; experiment: VL/CL panel, intracellular amastigotes; format: cell-based; details: Leishmania major; average; read-out: IC-50 L. major MHOM/SA/85/JISH118
# Protocol: as §1
# [13] = system: L. panamensis MHOM/PA/71/LS94; experiment: VL/CL panel, intracellular amastigotes; format: cell-based; details: Leishmania panamensis; average; read-out: IC-50 L. panamensis MHOM/PA/71/LS94
# Protocol: as §1
# [14] = system: L. tropica MHOM/AF/2015/HTD7; experiment: VL/CL panel, intracellular amastigotes; format: cell-based; details: Leishmania tropica; average; read-out: IC-50 L. tropica MHOM/AF/2015/HTD7
# Protocol: as §1
# [15] = system: panel of VL and CL strains (intracellular amastigotes); experiment: Panel of VL and CL strains; format: cell-based, Leishmania spp.; details: Leishmania, L. major JISH118 and L. braziliensis H3227 excepted, read-out: IC50 values across panel of VL and CL strains
# Protocol: The only two clear exceptions were L. major (MHOM/SA/85/JISH118) and L. braziliensis (MHOM/BR/94/H3227), where a potency drop was evident (see S1 Data for the complete dataset).
# as §1
# [16] = female, BALB/c, plasma, single oral dose 50 mg/kg
# [17] = female, BALB/c, plasma, single oral dose 50 mg/kg, read-out: Cmax
Structure (SMILES),free plasma concentration (corrected by PPB) versus in vitro IC50 (corrected for medium binding) [1],"AUC(0-t) [1, 16] [ng·h/mL]","Cmax [1, 17] [ng/mL]",5-day tolerability (Mouse 5-day tolerability; oral 25 mg/kg/day),5-day tolerability (Mouse 5-day tolerability; oral 50 mg/kg/day),5-day tolerability (Mouse 5-day tolerability; oral top dose (100 mg/kg/day)),toxicity in infected mice [2],IC50 [3] [µM],IC50 [4] [µM],IC50 [5] [µM],IC50 [6] [µM],IC50 [7] [µM],IC50 [8] [µM],IC50 [9] [µM],IC50 [10] [µM],IC50 [11] [µM],IC50 [12] [µM],IC50 [13] [µM],IC50 [14] [µM],IC50 [15] [µM],other results
"Cn1nccc1C(=O)Nc1nc2ccc(C#N)cc2n1CC(C)(C)C [Compound 29, O=C(Nc1n(CC(C)(C)C)c(c2n1)cc(C#N)cc2)c3n(C)ncc3]",below the in vitro IC50,35400,2000,well tolerated,clinical signs from day 3 of treatment,"body weight reduction and severe toxic signs, including mortality",one animal was euthanized due to severe clinical signs of distress,0.3,4.04,1.02,0.55,2.16,1.62,2.68,3.17,2.81,8.64,0.63,2.85,0.11 to 5.9,"higher AUClast, 50 vs 10 mg/kg oral [1]: approximately 4 fold; increase in Cmax, 50 vs 10 mg/kg oral [1]: 2 fold; clearance ([1]; female, BALB/c, plasma, 2 mg/kg IV): 9 mL/min/kg; bioavailability [1, 16]: 37%; parasite load (bioluminescence) ([2]; 5 days, end of treatment or washout): no decrease in parasite load"
"Cn1nccc1C(=O)Nc1nc2ccc(C#N)cc2n1CC(F)(F)F [Compound 30, O=C(c1ccnn1C)Nc2nc(ccc(C#N)c3)c3n2CC(F)(F)F]",,25200,2000,,,,,,,,,,,,,,,,,,"half-life [1, 16]: 6.8 h"
"Cn1nc(C(F)(F)F)cc1C(=O)Nc1nc2ccc(C#N)cc2n1CC(F)(F)F [Compound 39, O=C(c1cc(C(F)(F)F)nn1C)Nc2nc(ccc(C#N)c3)c3n2CC(F)(F)F]",up to four times above the free IC50,63700,7300,well tolerated,clinical signs from day 3 of treatment,"body weight reduction and severe toxic signs, including mortality",severe toxic effects,0.1,1.61,0.11,1.08,4.16,3.21,3.64,4.65,3.01,17,1.22,5.9,0.11 to 5.9,"Cmax ([1]; female, BALB/c, plasma, single 50 mg/kg oral dose, read-out: total Cmax): ~17 µM; half-life [1, 16]: 8 h; exposure (AUClast) compared to 29 at the same dose ([1]; oral 50 mg/kg): 2 fold"
